{
  "source": "patent US8115060B2",
  "about": "“Means and methods of controlling plant seed germination” (Applied Biotechnology Institute, Inc., priority 2008, dated 2012)",
  "key": {"non-transformed seeds": {"test_system": "non-transformed seeds", "test": "Germination of non-transformed seeds imbibed in water with biotin", "settings": "biotin in water used for imbibing", "text": "Since our T0 plants were crossed with non-transgenic maize in the greenhouse, it is expected that half of the seeds in our initial transformed plants (T1 seed) should not carry the avidin gene."}, "[1]": {"test_system": "corn plants expressing avidin with a constitutive promoter targeted to the cell wall", "test": "Reversal of avidin-induced male sterility by application of biotin to corn plants", "type": "in vivo", "settings": "biotin applied to plants; unpublished results", "text": "Biotin is a B vitamin and provides a safe chemical for seed treatment. In addition, biotin is inexpensive and readily available. […] When avidin was expressed in corn plants with a constitutive promoter targeted to the cell wall, male sterility occurred (14)."}, "[2]": {"test_system": "seeds from transformation events containing the avidin gene", "test": "Germination of T1 seeds containing the avidin gene, imbibed with and without biotin", "type": "in vivo, maize"}},
  "data": [
    {"smiles": "O=C(O)CCCC[C@@H]1SC[C@@H]2NC(=O)N[C@@H]21", "note": "[biotin]", "values": [
      {"measurement": "biotin concentration tolerated with no detrimental signs of any effect on germination", "setting": "non-transformed seeds", "value": "up to 10 μg/ml"},
      {"measurement": "reversal of male sterility caused by avidin", "setting": "[1]", "value": "able to reverse the effect of avidin and render the plants fertile"},
      {"measurement": "number of seeds that failed to germinate", "setting": "[2]; 20 seeds from a single ear of transformed corn imbibed with biotin, after one week, best result", "value": "one"},
      {"measurement": "change in number of non germinating seeds when biotin applied during imbibing", "setting": "[2]; several experiments testing 240 seeds, compared with water", "value": "cut in half"}
    ]}
  ]
}
